Our source for the IC50 values is patent publication US11759462B2, “Spirocyclic compounds as tryptophan hydroxylase inhibitors” (priority 2013, dated 2023).

Some results are limits rather than exact numbers.

As a reminder, the IC50 is the concentration needed to halve the response being measured.

This assay has as its target T1, Recombinant human TPH1 (MBP tagged) (Homo sapiens, UniProt P17752).
T1 construct: cloning full length human TPH1 cDNA in to a bacterial pMAL-c5E expression vector; made in house; host or cells: E. coli BL21 (DE3)
T1 sequence (P17752 1-444): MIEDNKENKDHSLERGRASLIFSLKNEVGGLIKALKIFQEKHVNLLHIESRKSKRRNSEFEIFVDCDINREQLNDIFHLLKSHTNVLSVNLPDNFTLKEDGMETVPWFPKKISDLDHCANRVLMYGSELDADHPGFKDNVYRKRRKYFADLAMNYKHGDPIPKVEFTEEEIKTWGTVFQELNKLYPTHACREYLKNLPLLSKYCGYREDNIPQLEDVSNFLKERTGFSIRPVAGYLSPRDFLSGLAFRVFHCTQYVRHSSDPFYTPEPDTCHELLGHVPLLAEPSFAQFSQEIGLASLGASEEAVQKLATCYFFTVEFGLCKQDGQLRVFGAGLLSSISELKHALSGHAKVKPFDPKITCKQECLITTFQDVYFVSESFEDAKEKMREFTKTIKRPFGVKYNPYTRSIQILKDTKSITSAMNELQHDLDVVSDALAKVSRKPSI
Kind of assay: TPH1 in vitro inhibition assay (kinetic fluorescence). It is filed as biochemical. As to conditions: read-out: TPH1 Range (TPH1 inhibition IC50). Put shortly: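 Final mix: 15 nM MBP-TPH1, 30 μM Trp, 36 μM 6-methyltetrahydropterin, 25 μM ferrous ammonium sulfate, 50 mM MES pH 7.1, 1% DMSO, room temperature.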
`Nc1nc(O[C@H](c2ccc(Cl)cc2-n2ccc(C(F)(F)F)n2)C(F)(F)F)cc(N2CCC3(CC2)CN[C@H](C(=O)O)C3)n1` [Example 10p, (S)-8-(2-amino-6-((R)-1-(4-chloro-2-(3-(trifluoromethyl)-1H-pyrazol-1-yl)phenyl)-2,2,2-trifluoroethoxy)pyrimidin-4-yl)-2,8-diazaspiro[4.5]decane-3-carboxylic acid]: the IC50 lay in the range of 50 to 300 nM.

On to `CC(C)(C)c1ccn(-c2cc(Cl)ccc2[C@@H](Oc2cc(N3CCC4(CC3)CN[C@H](C(=O)O)C4)nc(N)n2)C(F)(F)F)n1` [Example 10pa, (S)-8-(2-amino-6-((R)-1-(2-(3-(tert-butyl)-1H-pyrazol-1-yl)-4-chlorophenyl)-2,2,2-trifluoroethoxy)pyrimidin-4-yl)-2,8-diazaspiro[4.5]decane-3-carboxylic acid], for which the IC50 was 50 to 300 nM.

Consider `CC(C)c1ccn(-c2cc(Cl)ccc2[C@@H](Oc2cc(N3CCC4(CC3)CN[C@H](C(=O)O)C4)nc(N)n2)C(F)(F)F)n1` [Example 10q, (S)-8-(2-amino-6-((R)-1-(4-chloro-2-(3-isopropyl-1H-pyrazol-1-yl)phenyl)-2,2,2-trifluoroethoxy)pyrimidin-4-yl)-2,8-diazaspiro[4.5]decane-3-carboxylic acid], for which the concentration for half-maximal inhibition (IC50) was below 50 nM.

In the case of `Nc1nc(O[C@H](c2ccc(Cl)cc2-n2ccc(C3CC3)n2)C(F)(F)F)cc(N2CCC3(CC2)CN[C@H](C(=O)O)C3)n1` [Example 10r, (S)-8-(2-amino-6-((R)-1-(4-chloro-2-(3-cyclopropyl-1H-pyrazol-1-yl)phenyl)-2,2,2-trifluoroethoxy)pyrimidin-4-yl)-2,8-diazaspiro[4.5]decane-3-carboxylic acid], the IC50 was below 50 nM.

Take `CCc1ccc([C@@H](Oc2cc(N3CCC4(CC3)CN[C@H](C(=O)O)C4)nc(N)n2)C(F)(F)F)c(-n2ccc(C)n2)c1` [Example 12a, (S)-8-(2-amino-6-((R)-1-(4-ethyl-2-(3-methyl-H-pyrazol-1-yl)phenyl)-2,2,2-trifluoroethoxy)pyrimidin-4-yl)-2,8-diazaspiro[4.5]decane-3-carboxylic acid]: the half-inhibitory concentration (IC50) was 50 to 300 nM.

Consider `Cc1ccn(-c2cc(C(O)CO)ccc2[C@@H](Oc2cc(N3CCC4(CC3)CN[C@H](C(=O)O)C4)nc(N)n2)C(F)(F)F)n1` (stereo partly drawn) [Example 13, (3S)-8-(2-amino-6-((1R)-1-(4-(1,2-dihydroxyethyl)-2-(3-methyl-1H-pyrazol-1-yl)phenyl)-2,2,2-trifluoroethoxy)pyrimidin-4-yl)-2,8-diazaspiro[4.5]decane-3-carboxylic acid], for which the half-inhibitory concentration (IC50) fell in the range of 50 to 300 nM.

For `Cc1ccn(-c2cc(C#N)ccc2[C@@H](Oc2cc(N3CCC4(CC3)CN[C@H](C(=O)O)C4)nc(N)n2)C(F)(F)F)n1` [Example 14, (S)-8-(2-amino-6-((R)-1-(4-cyano-2-(3-methyl-H-pyrazol-1-yl)phenyl)-2,2,2-trifluoroethoxy)pyrimidin-4-yl)-2,8-diazaspiro[4.5]decane-3-carboxylic acid], the 50% inhibitory concentration (IC50) is below 50 nM.

Turning to `Cc1ccn(-c2cc(C(N)=O)ccc2[C@@H](Oc2cc(N3CCC4(CC3)CN[C@H](C(=O)O)C4)nc(N)n2)C(F)(F)F)n1` [Example 15, (S)-8-(2-amino-6-((R)-1-(4-carbamoyl-2-(3-methyl-H-pyrazol-1-yl)phenyl)-2,2,2-trifluoroethoxy)pyrimidin-4-yl)-2,8-diazaspiro[4.5]decane-3-carboxylic acid], the IC50 is 50 to 300 nM.

In the case of `CCOC(=O)c1ccc([C@@H](Oc2cc(N3CCC4(CC3)CN[C@H](C(=O)O)C4)nc(N)n2)C(F)(F)F)c(-n2ccc(C)n2)c1` [Example 17, (S)-8-(2-amino-6-((R)-1-(4-(ethoxycarbonyl)-2-(3-methyl-H-pyrazol-1-yl)phenyl)-2,2,2-trifluoroethoxy)pyrimidin-4-yl)-2,8-diazaspiro[4.5]decane-3-carboxylic acid], the IC50 is below 50 nM.

`Cc1ccn(-c2cc(C(=O)OC(C)(C(F)(F)F)C(F)(F)F)ccc2[C@@H](Oc2cc(N3CCC4(CC3)CN[C@H](C(=O)O)C4)nc(N)n2)C(F)(F)F)n1` [Example 18a, (S)-8-(2-amino-6-((R)-2,2,2-trifluoro-1-(4-(((1,1,1,3,3,3-hexafluoro-2-methylpropan-2-yl)oxy)carbonyl)-2-(3-methyl-1H-pyrazol-1-yl)phenyl)ethoxy)pyrimidin-4-yl)-2,8-diazaspiro[4.5]decane-3-carboxylic acid]: the IC50 was in the range of 50 to 300 nM.

On to `CCCOC(=O)c1ccc([C@@H](Oc2cc(N3CCC4(CC3)CN[C@H](C(=O)O)C4)nc(N)n2)C(F)(F)F)c(-n2ccc(C)n2)c1` [Example 18b, (S)-8-(2-amino-6-((R)-2,2,2-trifluoro-1-(2-(3-methyl-1H-pyrazol-1-yl)-4-(propoxycarbonyl)phenyl)ethoxy)pyrimidin-4-yl)-2,8-diazaspiro[4.5]decane-3-carboxylic acid], for which the IC50 was below 50 nM.

Turning to `CCCCOC(=O)c1ccc([C@@H](Oc2cc(N3CCC4(CC3)CN[C@H](C(=O)O)C4)nc(N)n2)C(F)(F)F)c(-n2ccc(C)n2)c1` [Example 18c, (S)-8-(2-amino-6-((R)-1-(4-(butoxycarbonyl)-2-(3-methyl-1H-pyrazol-1-yl)phenyl)-2,2,2-trifluoroethoxy)pyrimidin-4-yl)-2,8-diazaspiro[4.5]decane-3-carboxylic acid], the half-inhibitory concentration (IC50) was below 50 nM.

On to `Cc1ccn(-c2cc(C(=O)OC(C)(C)C)ccc2[C@@H](Oc2cc(N3CCC4(CC3)CN[C@H](C(=O)O)C4)nc(N)n2)C(F)(F)F)n1` [Example 18d, (S)-8-(2-amino-6-((R)-1-(4-(tert-butoxycarbonyl)-2-(3-methyl-1H-pyrazol-1-yl)phenyl)-2,2,2-trifluoroethoxy)pyrimidin-4-yl)-2,8-diazaspiro[4.5]decane-3-carboxylic acid], for which the IC50 was below 50 nM.

On to `Cc1ccn(-c2cc(C(=O)OCC(C)C)ccc2[C@@H](Oc2cc(N3CCC4(CC3)CN[C@H](C(=O)O)C4)nc(N)n2)C(F)(F)F)n1` [Example 18e, (S)-8-(2-amino-6-((R)-2,2,2-trifluoro-1-(4-(isobutoxycarbonyl)-2-(3-methyl-1H-pyrazol-1-yl)phenyl)ethoxy)pyrimidin-4-yl)-2,8-diazaspiro[4.5]decane-3-carboxylic acid], for which the IC50 is below 50 nM.

Consider `Cc1ccn(-c2cc(C(=O)OC3CCCC3)ccc2[C@@H](Oc2cc(N3CCC4(CC3)CN[C@H](C(=O)O)C4)nc(N)n2)C(F)(F)F)n1` [Example 18f, (S)-8-(2-amino-6-((R)-1-(4-((cyclopentyloxy)carbonyl)-2-(3-methyl-1H-pyrazol-1-yl)phenyl)-2,2,2-trifluoroethoxy)pyrimidin-4-yl)-2,8-diazaspiro[4.5]decane-3-carboxylic acid], for which the IC50 was below 50 nM.

Turning to `C=Cc1ccc(-n2ccc(C)n2)c([C@@H](Oc2cc(N3CCC4(CC3)CN[C@H](C(=O)O)C4)nc(N)n2)C(F)(F)F)c1` [Example 19a, (S)-8-(2-amino-6-((R)-2,2,2-trifluoro-1-(2-(3-methyl-1H-pyrazol-1-yl)-5-vinylphenyl)ethoxy)pyrimidin-4-yl)-2,8-diazaspiro[4.5]decane-3-carboxylic acid], the IC50 is below 50 nM.

On to `C/C=C/c1ccc(-n2ccc(C)n2)c([C@@H](Oc2cc(N3CCC4(CC3)CN[C@H](C(=O)O)C4)nc(N)n2)C(F)(F)F)c1` [Example 19b, (S)-8-(2-amino-6-((R)-2,2,2-trifluoro-1-(2-(3-methyl-1H-pyrazol-1-yl)-5-((E)-prop-1-en-1-yl)phenyl)ethoxy)pyrimidin-4-yl)-2,8-diazaspiro[4.5]decane-3-carboxylic acid], for which the 50% inhibitory concentration (IC50) is below 50 nM.

With `CC/C=C/c1ccc(-n2ccc(C)n2)c([C@@H](Oc2cc(N3CCC4(CC3)CN[C@H](C(=O)O)C4)nc(N)n2)C(F)(F)F)c1` [Example 19c, (S)-8-(2-amino-6-((R)-1-(5-((E)-but-1-en-1-yl)-2-(3-methyl-1H-pyrazol-1-yl)phenyl)-2,2,2-trifluoroethoxy)pyrimidin-4-yl)-2,8-diazaspiro[4.5]decane-3-carboxylic acid], the IC50 is below 50 nM.

On to `Cc1ccn(-c2ccc(/C=C/C(=O)O)cc2[C@@H](Oc2cc(N3CCC4(CC3)CN[C@H](C(=O)O)C4)nc(N)n2)C(F)(F)F)n1` [Example 19d, (S)-8-(2-amino-6-((R)-1-(5-((E)-2-carboxyvinyl)-2-(3-methyl-1H-pyrazol-1-yl)phenyl)-2,2,2-trifluoroethoxy)pyrimidin-4-yl)-2,8-diazaspiro[4.5]decane-3-carboxylic acid], for which the 50% inhibitory concentration (IC50) was in the range of 50 to 300 nM.

Regarding `Cc1ccn(-c2ccc(-c3ccc(C)c(C)c3)cc2[C@@H](Oc2cc(N3CCC4(CC3)CN[C@H](C(=O)O)C4)nc(N)n2)C(F)(F)F)n1` [Example 19e, (S)-8-(2-amino-6-((R)-1-(3′,4′-dimethyl-4-(3-methyl-1H-pyrazol-1-yl)-[1,1′-biphenyl]-3-yl)-2,2,2-trifluoroethoxy)pyrimidin-4-yl)-2,8-diazaspiro[4.5] decane-3-carboxylic acid], the 50% inhibitory concentration (IC50) is below 50 nM.

Regarding `Cc1ccn(-c2ccc(-c3cccc(C(=O)O)c3)cc2[C@@H](Oc2cc(N3CCC4(CC3)CN[C@H](C(=O)O)C4)nc(N)n2)C(F)(F)F)n1` [Example 19f, (S)-8-(2-amino-6-((R)-1-(3′-carboxy-4-(3-methyl-1H-pyrazol-1-yl)-[1,1′-biphenyl]-3-yl)-2,2,2-trifluoroethoxy)pyrimidin-4-yl)-2,8-diazaspiro[4.5] decane-3-carboxylic acid], the IC50 was below 50 nM.
